Test results reported in patent publication US9187458B2, “Cyanoquinoline derivatives” (Tianjin Hemay Bio-Tech Co., LTD., priority 2010, dated 2015).

Columns and labels:
Format in all cases: cell-based
SW620 cells = test: SW620 Cell Growth Inhibition Test (SRB Assay); conditions: Homo sapiens, SW-620, 91 h incubation
Method: SW620 Cell Growth Inhibition Test (SRB Assay)
Cell strains: SW620 (human colorectal cancer cell strains);
SRB: available from Sigmaaldrich, goods number: S9012, lot number: 047K3751. […] was reserved at the room temperature. 0.4% (w/v) of working solution was formulated with 1% of glacial acetic acid. The solution was reserved at 4° C.; anti-tumor compounds; DMSO.
Culture medium: 90% L15+10% FBS;
1. A plate (10 cm) of cells in logarithmic growth phase normally cultured was collected. The culture solution was sucked out. The plate was washed wtih 5 mL of PBS 1-2 times;
2. PBS was sucked out. […] of 0.25% pancreatin was added to infiltrate the cells for 30 s;
3. The pancreatin was sucked out. The culture plate was placed in an incubator. Digestion was carried out for about 1.5-2 min at 37° C.;
4. 4 mL of complete culture solution was added to the culture plate to stop the digestion. The cells were carefully scoured with micropipette (1 ml) to give a uniform single cell suspension;
5. Cell suspension was counted. The suspension was diluted to 1.5×10^5/ml. The resulting suspension was developed uniformly on a plate by 15000 cells/100 μl per well. The culture plate was incubated overnight under 5% CO2 at 37° C. In day 2, 100 μl of culture solution comprising a compound was added in each well, and further incubated for 91 h under 5% CO2 at 37° C.;
(§1) 6. The culture solution was sucked out. 100 uL of TCA fixed cells which were diluted to 10% were added to each well. The plate was kept in a refrigerator for 1 h at 4° C.
(§2) 7. TCA stationary liquid was sucked out. Each well was washed with 150 μL of ddH2O five times;
(§3) 8. After the stationary liquid was cleansed, the plate was dried in the air at the room temperature;
(§4) 9. 60 μL of SRB staining solution was added in each well. The well was stained for 15 min at the room temperature;
(§5) 10. The SRB staining solution was sucked out. Each well was washed with 150 μL of 1% glacial acetic acid five times;
(§6) 11. After the SRB staining solution was cleansed, the plate was dried in the air at the room temperature;
(§7) 12. 100 μL of 10 mM Tris was added in each well, the plate was vibrated to dissolve out SRB;
(§8) 13. OD values were determined at 570 nM.
To: OD values of the starting content of cells when the cells were developed on a plate;
PC: OD values of cells after normal growth in control wells without a compound;
Ti: OD values of cells after growth in test wells with a compound;
NC: Background OD values of blank wells without a compound and cells
Therefore: Ratio of cells in test wells to normal wells (% of control cell growth)=(Ti−To)/(PC−To)×100%
Ratio GI50 was concentration of a compound at the point of 50%.
Therefore: Ratio of killed cells to inoculated cells (% of killed cell)=(Ti−To)/(To−NC)×100%
LC50 was concentration point of a compound when half of the starting inoculated concentration was reached.
Concentration of a compound at this point is defined as TGI (total growth inhibition).

CCRF-CEM/T cells = test: CCRF-CEM/T Cell Growth Inhibition Test (MTT Assay); conditions: Homo sapiens, CCRF-CEM/T cells (resistant to paclitaxel), 72 h incubation
Method: CCRF-CEM/T Cell Growth Inhibition Test (MTT Assay)
Cell strains: CCRF-CEM/T (human acute lymphocytic cell leukemia cells);
triple lysate solution: 10% SDS, 5% isobutanol, 0.012M HCl.
1. Cells were cultured to exponential phase. The cells were suspension cells;
2. The cells were collected by centrifuge. The resulting cells were resuspended in a complete culture medium to a desired concentration. The cells suspension was implanted into a 96-well cell culture plate by 20000 cells per well. A compound was added in the wellsuch that the final volume of the system was 120 μl. The system was further incubated for 72 h under 5% CO2 at 37° C.
7. 30 μl of serum-free culture solution containing 2.5 mg/ml MTT was added in each well, and incubated for 3 h;
8. 150 μl of triple lysate solution was added in each well and placed to dissolve at the room temperature;
9. OD values were determined at 570 nM.
(§9) 1. Calculation of Relative Inhibition Ratio The inhibition ratio of a compound on cell growth=(PC−n)/(PC−NC)×100%
(§10) IC50: Concentration of a compound where inhibition ratio was 50%. IC50 values were fitted with Origin7.5.

NCI-H1650 cells = test: NCI-H1650 Cell Growth Inhibition Test (SRB Assay); conditions: Homo sapiens, 72 h incubation
Method: NCI-H1650 Cell Growth Inhibition Test (SRB Assay)
1. Cell strains: NCI-H1650 (human non-small cell lung cancer cell strains);
2. SRB, 0.4% (w/v) working solution was formulated with 1% glacial acetic acid and reserved at 4° C.; antitumor compounds; DMSO
1. A plate (10 cm) of cells in logarithmic growth phase normally cultured was collected;
2. The culture solution was sucked out. The plate was washed with 5 mL of PBS 1-2 times;
3. 1.5 mL of 0.25% pancreatin was added to the plate to infiltrate the cells;
4. The pancreatin was sucked out. The culture plate was placed in an incubator. Digestion was carried out for about 3 min at 37° C.;
5. 4 mL of complete culture solution was added to the culture plate to stop the digestion. The cells were carefully scoured with micropipette (1 ml) to give a uniform single cell suspension. The suspensin was implanted into a 96-well cell culture plate by 6000 cells/100 μl per well. The culture plate was incubated overnight under 5% CO2 at 37° C. In day 2, 100 μl of culture solution comprising a compound was added in each well, and further incubated for 72 h under 5% CO2 at 37° C.;
as §1, §2, §3, §4, §5, §6, §7, §8, §9, §10

Row | SMILES | GI50 (SW620 cells) [nM] | IC50 (CCRF-CEM/T cells) [nM] | IC50 (NCI-H1650 cells) [nM]
1 | C#Cc1cccc(Nc2c(C#N)cnc3cc(OC4CCOC4)c(NC(=O)/C=C/CN(C)C)cc23)c1 (stereo not drawn) [Example 5, (E)-N-(3-CYANO-4-(3-ETHYNYLPHENYLAMINO)-7-(TETRAHYDROFURAN-3-YL-OXY)QUINOLIN-6-YL)-4-(DIMETHYLAMINO)-BUT-2-ENAMIDE] | 1680 | 9000 | 
2 | CN(C)C/C=C/C(=O)Nc1cc2c(Nc3ccc(OCc4ccccn4)c(Cl)c3)c(C#N)cnc2cc1OC1CCOC1 (stereo not drawn) [Example 21, (E)-N-(4-(3-CHLORO-4-(PYRIDIN-2-YL-METHOXY)PHENYLAMINO)-3-CYANO-7-(TETRAHYDROFURAN-3-YL-OXY)QUINOLIN-6-YL)-4-(DIMETHYLAMINO)-BUT-2-ENAMIDE] | 1780 |  | 
3 | C#Cc1cccc(Nc2c(C#N)cnc3cc(O[C@@H]4CCOC4)c(NC(=O)/C=C/CN(C)C)cc23)c1 [Example 141, (R,E)-N-(3-CYANO-4-(3-ETHYNYLPHENYLAMINO)-7-(TETRAHYDROFURAN-3-YL-OXY)QUINOLIN-6-YL)-4-(DIMETHYLAMINO)-BUT-2-ENAMIDE] | 1400 | 9100 | 
4 | CN(C)C/C=C/C(=O)Nc1cc2c(Nc3ccc(F)c(Cl)c3)c(C#N)cnc2cc1O[C@H]1CCOC1 [Example 142, (S,E)-N-(4-(3-CHLORO-4-FLUOROPHENYLAMINO)-3-CYANO-7-(TETRAHYDROFURAN-3-YL-OXY)QUINOLIN-6-YL)-4-(DIMETHYLAMINO)-BUT-2-ENAMIDE] | 2300 | 6600 | 
5 | C#Cc1cccc(Nc2c(C#N)cnc3cc(O[C@H]4CCOC4)c(NC(=O)/C=C/CN(C)C)cc23)c1 [Example 140, (S,E)-N-(3-CYANO-4-(3-ETHYNYLPHENYLAMINO)-7-(TETRAHYDROFURAN-3-YL-OXY)QUINOLIN-6-YL)-4-(DIMETHYLAMINO)-BUT-2-ENAMIDE] | 2300 | 7900 | 
6 | N#Cc1cnc2cc(O[C@H]3CCOC3)c(NC(=O)/C=C/CN3CCCCC3)cc2c1Nc1ccc(OCc2ccccn2)c(Cl)c1 [Example 151, (S,E)-N-(4-(3-CHLORO-4-(PYRIDIN-2-YL-METHOXY)PHENYLAMINO)-3-CYANO-7-(TETRAHYDROFURAN-3-YL-OXY)QUINOLIN-6-YL)-4-(PIPERIDIN-1-YL)-BUT-2-ENAMIDE] |  | 3600 | 
7 | CN(C)C/C=C/C(=O)Nc1cc2c(Nc3ccc(OCc4ccccn4)c(Cl)c3)c(C#N)cnc2cc1O[C@@H]1CCOC1 [Example 139, (R,E)-N-(4-(3-CHLORO-4-(PYRIDIN-2-YL-METHOXY)PHENYLAMINO)-3-CYANO-7-(TETRAHYDROFURAN-3-YL-OXY)QUINOLIN-6-YL)-4-(DIMETHYLAMINO)-BUT-2-ENAMIDE] | 1900 | 1400 | 1130
8 | CN(C)C/C=C/C(=O)Nc1cc2c(Nc3ccc(OCc4ccccn4)c(Cl)c3)c(C#N)cnc2cc1O[C@H]1CCOC1 [Example 138, (S,E)-N-(4-(3-CHLORO-4-(PYRIDIN-2-YL-METHOXY)PHENYLAMINO)-3-CYANO-7-(TETRAHYDROFURAN-3-YL-OXY)QUINOLIN-6-YL)-4-(DIMETHYLAMINO)-BUT-2-ENAMIDE] | 1780 | 5600 | 1100
9 | CN(C)C/C=C/C(=O)Nc1cc2c(Nc3ccc(OCc4cccc(F)c4)c(Cl)c3)c(C#N)cnc2cc1OC1CCOC1 (stereo not drawn) [Example 9, (E)-N-(4-(4-(3-FLUOROBENZYLOXY)-3-CHLOROPHENYLAMINO)-3-CYANO-7-(TETRAHYDROFURAN-3-YL-OXY)QUINOLIN-6-YL)-4-(DIMETHYLAMINO)-BUT-2-ENAMIDE] | 2100 |  | 636
10 | CCN(CC)C/C=C/C(=O)Nc1cc2c(Nc3ccc(OCc4ccccn4)c(Cl)c3)c(C#N)cnc2cc1O[C@H]1CCOC1 [Example 150, (S,E)-N-(4-(3-CHLORO-4-(PYRIDIN-2-YL-METHOXY)PHENYLAMINO)-3-CYANO-7-(TETRAHYDROFURAN-3-YL-OXY)QUINOLIN-6-YL)-4-(DIETHYLAMINO)-BUT-2-ENAMIDE] |  | 3760 | 
11 | CN(C)C/C=C/C(=O)Nc1cc2c(Nc3ccc(F)c(Cl)c3)c(C#N)cnc2cc1OC1CCOC1 (stereo not drawn) [Example 4, (E)-N-(4-(3-CHLORO-4-FLUOROPHENYLAMINO)-3-CYANO-7-(TETRAHYDROFURAN-3-YL-OXY)QUINOLIN-6-YL)-4-(DIMETHYLAMINO)-BUT-2-ENAMIDE] | 3500 | 5800 | 
